In patent US20210323985A1, “SHIELDING AGENTS AND THEIR USE” (ENDOCYTE, INC., priority 2018, published 2021):

How the values were obtained:
22RV1 tumors = test: Biodistribution of 99mTc imaging conjugate 3a co-administered with a shielding agent in nude mice bearing 22RV1 tumors; type: in vivo; conditions: 4 hours; 30 nmol/kg 99mTc imaging conjugate 3a; co-administration of 1 μmol/kg shielding agent; FIG. 8
Description: FIG. 8 is a chart showing the biodistribution at 4 hours in nude mice bearing 22RV1 tumors at 30 nmol/kg of ^99mTC imaging conjugate 3a with co-administration of 1 μmol/kg of a shielding agent. […] In the graph for each tissue ^99mTC imaging conjugate 3a+compound 1d (S-enantiomer) (left bar), ^99mTC imaging conjugate 3a+compound 1d (R-enantiomer) (right bar).
(§1) The shielding agents of the present disclosure were administered in combination with an imaging agent of the disclosure, and the biodistribution was analyzed.

LNCaP tumors = test: Biodistribution of Ia-Lu with or without co-administered shielding agent in nude mice bearing LNCaP tumors; type: in vivo; conditions: 4 hours; 30 nmol/kg Ia-Lu; co-administration of 1 μmol/kg shielding agent, vs Ia-Lu alone; FIG. 9
Description: FIG. 9 is a chart showing the biodistribution at 4 hours in nude mice bearing LNCaP tumors at 30 nmol/kg of Ia-Lu with or without co-administration of 1 μmol/kg of a shielding agent. […] In the graph for each tissue Ia-Lu alone (left bar), Ia-Lu+compound 1m (middle bar), Ia-Lu+compound 1d (S-enantiomer) (right bar).
as §1

| SMILES | 99mTc imaging conjugate 3a tumor to kidney ratio (22RV1 tumors) | activity of shielding agent (comparison of enantiomers) (22RV1 tumors) | Ia-Lu tumor to kidney ratio (LNCaP tumors) |
| --- | --- | --- | --- |
| CCCCCCCCCCCCOC(=O)CC[C@@H](CP(=O)(O)O)C(=O)O [1d (S-enantiomer)] | enhanced | more active than the R-enantiomer | enhanced |
| CCCCOC(=O)CC[C@H](NC(=O)N[C@@H](CCC(=O)O)C(=O)O)C(=O)O [Compound 1m] | – | – | enhanced |
